Source: patent US9233979B2, “Compounds that are ERK inhibitors” (Merck Sharp & Dohme Corp., priority 2012, dated 2016)
Read-outs that look alike come from different tables or passages of the source.

Target: phosphorylated active hERK2 enzyme (Homo sapiens (Human), UniProt P28482)
Test: Active Human ERK2 (hERK2) Activity Assay (IMAP-FP)
Type: biochemical
Details: 10 point titration, read-out: AERK2 IC50
Procedure, shortened: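 IMAP detection beads in buffer with 24 mM NaCl stopped the reaction, and fluorescence polarization was read after 60 min binding.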

[1] = Table 6, 0.5 nM hERK2, 30 μM ATP
[2] = Table 5, 0.5 nM hERK2, 30 μM ATP

Chain of phosphorylated active hERK2 enzyme (P28482 whole entry): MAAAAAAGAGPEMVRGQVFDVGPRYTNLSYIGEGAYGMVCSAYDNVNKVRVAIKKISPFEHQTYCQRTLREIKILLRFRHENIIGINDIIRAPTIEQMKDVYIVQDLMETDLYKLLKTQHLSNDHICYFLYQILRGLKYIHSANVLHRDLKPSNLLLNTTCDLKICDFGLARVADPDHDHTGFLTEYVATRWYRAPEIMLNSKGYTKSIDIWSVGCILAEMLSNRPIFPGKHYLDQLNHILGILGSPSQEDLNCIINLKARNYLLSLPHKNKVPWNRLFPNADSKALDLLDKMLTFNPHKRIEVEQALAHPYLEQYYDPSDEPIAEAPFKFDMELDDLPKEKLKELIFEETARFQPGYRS

An IC50 [1] of 27.2 nM was found for `COC[C@@H](NC(=O)Nc1cc2[nH]nc(Nc3ccccc3Cl)c2cn1)c1ccccc1` [Example 120, 1-{3-[(2-chlorophenyl)-amino]-1H-pyrazolo[4,3-c]pyridin-6-yl}-3-[(1S)-2-methoxy-1-phenylethyl]urea] in this work.

An IC50 [1] of 27.4 nM was found for `CCNc1n[nH]c2cc(NC(=O)N[C@@H](CN(C)C)c3ccccc3)ncc12` [Example 239, 1-[(1R)-2-(dimethylamino)-1-phenylethyl]-3-[3-(ethylamino)-1H-pyrazolo[4,3-c]pyridin-6-yl]urea] in this work.

An IC50 [1] of 0.6 nM was found for `C[C@@H](NC(=O)Nc1cc2[nH]nc(NC(=O)Cc3ccccc3)c2cn1)c1ccccc1` [Example 202, 2-phenyl-N-[6-({[(1R)-1-phenylethyl]-carbamoyl}amino)-1H-pyrazolo[4,3-c]pyridin-3-yl]-acetamide] in this work.

An IC50 [1] of 50.2 nM was found for `C[C@@H](NC(=O)Nc1cc2[nH]nc(NCC3CCNCC3)c2cn1)c1ccccc1` [Example 165, 1-[(1R)-1-phenylethyl]-3-{3-[(piperidin-4-ylmethyl)amino]-1H-pyrazolo[4,3-c]pyridin-6-yl}urea] in this work.

An IC50 [1] of 27.9 nM was found for `C[C@@H](NC(=O)Nc1cc2[nH]nc(NCC3CCCCO3)c2cn1)c1ccccc1` (stereo partly drawn) [Example 196, 1-[(1R)-1-phenylethyl]-3-{3-[(tetrahydro-2H-pyran-2-yl-methyl)amino]-1H-pyrazolo[4,3-c]-pyridin-6-yl}urea] in this work.

An IC50 [2] of 255 nM was found for `COCCNC(=O)Nc1cc2[nH]nc(N3CCC3)c2cn1` [Example 8, 1-(3-azetidin-1-yl-1H-pyrazolo[4,3-c]pyridin-6-yl)-3-(2-methoxyethyl)urea] in this work.

An IC50 [1] of 31.2 nM was found for `C[C@@H](NC(=O)Nc1cc2[nH]nc(NC3CCC(N(C)C)CC3)c2cn1)c1ccccc1` (stereo partly drawn) [Example 172, 1-(3-{[4-(dimethylamino)-cyclohexyl]amino}-1H-pyrazolo[4,3-c]pyridin-6-yl)-3-[(1R)-1-phenylethyl]urea] in this work.

An IC50 [1] of 5.8 nM was found for `COC(=O)Nc1n[nH]c2cc(NC(=O)NC3CNc4ccccc4C3)ncc12` (stereo not drawn) [Example 293, methyl {6-[(1,2,3,4-tetrahydroquinolin-3-ylcarbamoyl)-amino]-1H-pyrazolo[4,3-c]-pyridin-3-yl}-carbamate] in this work.

An IC50 [1] of 6 nM was found for `Nc1n[nH]c2cc(NC(=O)NC3CCCC3c3ccccc3)ncc12` (stereo not drawn) [Example 261, 1-(3-amino-1H-pyrazolo[4,3-c]-pyridin-6-yl)-3-(2-phenylcyclopentyl)urea] in this work.

An IC50 [1] of 127 nM was found for `C[C@@H](NC(=O)Nc1cc2[nH]nc(Nc3ccccc3)c2cn1)c1ccccc1` [Example 379, 1-[3-(phenyl-amino)-1H-pyrazolo[4,3-c]-pyridin-6-yl]-3-[(1R)-1-phenylethyl]urea] in this work.

An IC50 [1] of 2.9 nM was found for `COC(=O)Nc1n[nH]c2cc(NC(=O)N[C@H](C)c3ccc(F)c(Cl)c3)ncc12` [Example 300, methyl [6-({[(1R)-1-(3-chloro-4-fluorophenyl)ethyl]carbamoyl}amino)-1H-pyrazolo[4,3-c]pyridin-3-yl]-carbamate] in this work.

An IC50 [1] of 4.5 nM was found for `COC1CCN(c2n[nH]c3cc(NC(=O)N[C@H](C)c4ccccc4)ncc23)CC1` [Example 413, 1-[3-(4-methoxypiperidin-1-yl)-1H-pyrazolo[4,3-c]-pyridin-6-yl]-3-[(1R)-1-phenylethyl]urea] in this work.

An IC50 [1] of 3.7 nM was found for `CC(C)(O)[C@@H](NC(=O)Nc1cc2[nH]nc(NC(=O)N3C[C@H]4COC[C@H]4C3)c2cn1)c1ccc(F)cc1` [Example 457, (3aR,6aS)-N-(6-(3-((S)-1-(4-fluorophenyl)-2-hydroxy-2-methylpropyl)-ureido)-1H-pyrazolo[4,3-c]-pyridin-3-yl)-tetrahydro-1H-furo[3,4-c]pyrrole-5(3H)-carboxamide] in this work.

An IC50 [2] of 4.78 nM was found for `C[C@@H](NC(=O)Nc1cc2[nH]nc(N3CCC3)c2cn1)c1ccccc1` [Example 25, 1-(3-azetidin-1-yl-1H-pyrazolo[4,3-c]pyridin-6-yl)-3-[(1R)-1-phenylethyl]urea] in this work.

An IC50 [1] of 2450 nM was found for `C[C@@H](NC(=O)Nc1cc2[nH]nc(NC(=O)N[C@H](C)c3ccc(Cl)c(C(F)(F)F)c3)c2cn1)c1ccc(Cl)c(C(F)(F)F)c1` [Example 310, N′,N″′-1H-pyrazolo[4,3-c]-pyridine-3,6-diylbis(1-{(1R)-1-[4-chloro-3-(trifluoromethyl)-phenyl]ethyl}urea)] in this work.

An IC50 [2] of 1 nM was found for `COC[C@@H](NC(=O)Nc1cc2[nH]nc(N3CCCC3)c2cn1)c1ccccc1` [Example 28, 1-[(1S)-2-methoxy-1-phenylethyl]-3-(3-pyrrolidin-1-yl-1H-pyrazolo[4,3-c]pyridin-6-yl)urea] in this work.

An IC50 [1] of 461 nM was found for `C[C@@H](NC(=O)Nc1cc2[nH]nc(NC(=O)N[C@H](C)c3ccc(Cl)c(O)c3)c2cn1)c1ccc(Cl)c(O)c1` [Example 308, N′,N″′-1H-pyrazolo[4,3-c]-pyridine-3,6-diylbis{1-[(1R)-1-(4-chloro-3-hydroxyphenyl)-ethyl]urea}] in this work.

An IC50 [1] of 50.2 nM was found for `C[C@@H](NC(=O)Nc1cc2[nH]nc(NC3CC(N(C)C)C3)c2cn1)c1ccccc1` (stereo partly drawn) [Example 169, 1-(3-{[3-(dimethylamino)-cyclobutyl]amino}-1H-pyrazolo[4,3-c]pyridin-6-yl)-3-[(1R)-1-phenylethyl]urea] in this work.

An IC50 [1] of 1.6 nM was found for `COC(=O)Nc1n[nH]c2cc(NC(=O)N[C@H](C)c3cccc(F)c3)ncc12` [Example 299, methyl [6-({[(1R)-1-(3-fluorophenyl)-ethyl]carbamoyl}-amino)-1H-pyrazolo[4,3-c]-pyridin-3-yl}-carbamate] in this work.

An IC50 [1] of 28 nM was found for `CCNc1n[nH]c2cc(NC(=O)NC3COc4ccccc4C3)ncc12` (stereo not drawn) [Example 233, 1-(3,4-dihydro-2H-chromen-3-yl)-3-[3-(ethylamino)-1H-pyrazolo[4,3-c]pyridin-6-yl]urea] in this work.

An IC50 [1] of 1.9 nM was found for `O=C(Nc1cc2[nH]nc(N3CC4CCC(C3)O4)c2cn1)N[C@H](CO)c1ccccc1` [Example 439, 1-[(1S)-2-hydroxy-1-phenylethyl]-3-[3-(8-oxa-3-azabicyclo[3.2.1]-oct-3-yl)-1H-pyrazolo[4,3-c]-pyridin-6-yl]urea] in this work.

An IC50 [1] of 359 nM was found for `CCNc1n[nH]c2cc(NC(=O)N[C@H](c3ccccc3)[C@H]3CCCO3)ncc12` [Example 150, 1-[3-(ethylamino)-1H-pyrazolo[4,3-c]pyridin-6-yl]-3-{(R)-phenyl[(2R)-tetrahydrofuran-2-yl]methyl}urea] in this work.

An IC50 [1] of 15.1 nM was found for `CSC1CCN(c2n[nH]c3cc(NC(=O)N[C@H](C)c4ccccc4)ncc23)CC1` [Example 427, 1-{3-[4-(methylsulfanyl)-piperidin-1-yl]-1H-pyrazolo[4,3-c]-pyridin-6-yl}-3-[(1R)-1-phenylethyl]urea] in this work.

An IC50 [1] of 3.3 nM was found for `COc1cccc(F)c1CNC(=O)Nc1cc2[nH]nc(N)c2cn1` [Example 269, 1-(3-amino-1H-pyrazolo[4,3-c]pyridin-6-yl)-3-(2-fluoro-6-methoxy-benzyl)urea] in this work.

An IC50 [1] of 0.4 nM was found for `COC[C@@H](NC(=O)Nc1cc2[nH]nc(NC3CCC3)c2cn1)c1ccccc1` [Example 346, 1-[3-(cyclobutyl-amino)-1H-pyrazolo[4,3-c]-pyridin-6-yl]-3-[(1S)-2-methoxy-1-phenylethyl]urea] in this work.

An IC50 [2] of 13.9 nM was found for `CCNc1n[nH]c2cc(NC(=O)N[C@H](C)c3ccccc3)nc(C)c12` [Example 38, 1-[3-(ethylamino)-4-methyl-1H-pyrazolo[4,3-c]pyridin-6-yl]-3-[(1R)-1-phenylethyl]urea] in this work.

An IC50 [1] of 115 nM was found for `CNc1n[nH]c2cc(NC(=O)N[C@H](c3ccccc3)[C@@H]3CCCO3)ncc12` [Example 146, 1-(3-(methylamino)-1H-pyrazolo[4,3-c]pyridin-6-yl)-3-((R)-phenyl((S)-tetrahydrofuran-2-yl)methyl)urea] in this work.

An IC50 [2] of 11.8 nM was found for `CO[C@@H](C)CNC(=O)Nc1cc2[nH]nc(N3CCOCC3)c2cn1` [Example 17, 1-[(2S)-2-methoxypropyl]-3-(3-morpholin-4-yl-1H-pyrazolo[4,3-c]pyridin-6-yl)urea] in this work.

An IC50 [1] of 8.3 nM was found for `CCNc1n[nH]c2cc(NC(=O)NC3CCCC3c3ccccc3)ncc12` (stereo not drawn) [Example 237, 1-[3-(ethylamino)-1H-pyrazolo[4,3-c]pyridin-6-yl]-3-(2-phenyl-cyclopentyl)urea] in this work.

An IC50 [1] of 1.3 nM was found for `Cc1nc(NC(=O)N[C@@H](c2ccc(F)cc2)C(C)(C)O)cc2[nH]nc(N3CCC3)c12` [Example 110, 1-(3-azetidin-1-yl-4-methyl-1H-pyrazolo[4,3-c]-pyridin-6-yl)-3-[(1S)-1-(4-fluorophenyl)-2-hydroxy-2-methylpropyl]urea] in this work.

An IC50 [1] of 1.1 nM was found for `CC(C)(O)[C@@H](NC(=O)Nc1cc2[nH]nc(N3CCC3)c2cn1)c1ccc(F)cc1` [Example 100, 1-(3-azetidin-1-yl-1H-pyrazolo[4,3-c]-pyridin-6-yl)-3-[(1S)-1-(4-fluorophenyl)-2-hydroxy-2-methylpropyl]urea] in this work.

An IC50 [2] of 51.6 nM was found for `COC[C@H](C)NC(=O)Nc1cc2[nH]nc(N3CCOCC3)c2cn1` [Example 12, 1-[(1S)-2-methoxy-1-methylethyl]-3-(3-morpholin-4-yl-1H-pyrazolo[4,3-c]pyridin-6-yl)urea] in this work.

An IC50 [1] of 1.7 nM was found for `CCNc1n[nH]c2cc(NC(=O)N[C@H](C)c3cccc(F)c3)ncc12` [Example 243, 1-[3-(ethylamino)-1H-pyrazolo[4,3-c]pyridin-6-yl]-3-[(1R)-1-(3-fluorophenyl)-ethyl]urea] in this work.

An IC50 [1] of 0.4 nM was found for `C[C@@H](O)[C@@H](NC(=O)Nc1cc2[nH]nc(N3CCOCC3)c2c(CO)n1)c1ccc(F)cc1` [Example 108, 1-[(1S,2R)-1-(4-Fluorophenyl)-2-hydroxypropyl]-3-[4-(hydroxymethyl)-3-morpholin-4-yl-1H-pyrazolo[4,3-c]pyridin-6-yl]urea] in this work.

An IC50 [1] of 54.1 nM was found for `C[C@@H](NC(=O)Nc1cc2[nH]nc(NC3(C)CCC3)c2cn1)c1ccccc1` [Example 356, 1-{3-[(1-methylcyclo-butyl)amino]-1H-pyrazolo[4,3-c]-pyridin-6-yl}-3-[(1R)-1-phenylethyl]urea] in this work.

An IC50 [2] of 10.4 nM was found for `CCN(CC)c1n[nH]c2cc(NC(=O)N[C@H](COC)c3ccccc3)ncc12` [Example 21, 1-[3-(diethylamino)-1H-pyrazolo[4,3-c]pyridin-6-yl]-3-[(1S)-2-methoxy-1-phenylethyl]urea] in this work.
